Literature values, collected in patent US20080003278A1, “Food products and dietary supplements for improving mental performance” (priority 2006, published 2008).

Tested on: epileptic seizures
Conditions: thirty-one patients participating in the study

CCOC(=O)C1=C[C@]2(CC)CCCN3CCc4c(n1c1ccccc41)[C@@H]32 [vinpocetine]
patients in whom the frequency of epileptic seizures was reduced and, in some cases, seizures completely eliminated: twenty of the thirty-one
